Test results from ChEMBL document CHEMBL2074135, “Recognition of L-amino acid ester compounds by rat peptide transporters PEPT1 and PEPT2” (J Pharmacol Exp Ther, 1999).
Where “and” joins values, the source holds several entries; their conditions need not be identical. Equal entries are not always repeated.

Columns and labels:
Type in all cases: functional, cell-based
[1] = biological target: T1, Solute carrier family 15 member 1 (Rattus norvegicus, UniProt P51574); assay: TP_TRANSPORTER: inhibition of Gly-Sar uptake in PEPT1-expressing LLC-PK1 cells
T1 sequence (P51574 whole entry): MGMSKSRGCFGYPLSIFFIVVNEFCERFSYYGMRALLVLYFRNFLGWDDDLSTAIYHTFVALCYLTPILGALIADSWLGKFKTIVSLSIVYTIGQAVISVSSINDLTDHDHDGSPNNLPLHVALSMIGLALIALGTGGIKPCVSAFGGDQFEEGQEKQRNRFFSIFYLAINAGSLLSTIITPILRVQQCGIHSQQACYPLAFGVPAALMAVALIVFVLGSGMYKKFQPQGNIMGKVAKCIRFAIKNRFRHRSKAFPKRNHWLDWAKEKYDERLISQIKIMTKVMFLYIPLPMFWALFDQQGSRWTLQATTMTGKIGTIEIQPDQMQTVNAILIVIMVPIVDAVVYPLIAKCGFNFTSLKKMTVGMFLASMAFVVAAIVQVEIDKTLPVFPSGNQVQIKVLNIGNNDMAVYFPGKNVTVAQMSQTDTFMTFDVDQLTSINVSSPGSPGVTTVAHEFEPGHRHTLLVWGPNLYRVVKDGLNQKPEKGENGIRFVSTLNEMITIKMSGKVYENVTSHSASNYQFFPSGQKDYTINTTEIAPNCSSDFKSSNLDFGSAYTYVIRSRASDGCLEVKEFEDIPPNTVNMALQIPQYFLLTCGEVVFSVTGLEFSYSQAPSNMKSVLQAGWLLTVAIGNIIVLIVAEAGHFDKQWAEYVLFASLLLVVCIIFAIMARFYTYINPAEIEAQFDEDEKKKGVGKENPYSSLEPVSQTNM

[2] = biological target: T2, Solute carrier family 15 member 2 (Rattus norvegicus, UniProt Q63424); assay: TP_TRANSPORTER: inhibition of Gly-Sar uptake in PEPT2-expressing LLC-PK1 cells
T2 sequence (Q63424 whole entry): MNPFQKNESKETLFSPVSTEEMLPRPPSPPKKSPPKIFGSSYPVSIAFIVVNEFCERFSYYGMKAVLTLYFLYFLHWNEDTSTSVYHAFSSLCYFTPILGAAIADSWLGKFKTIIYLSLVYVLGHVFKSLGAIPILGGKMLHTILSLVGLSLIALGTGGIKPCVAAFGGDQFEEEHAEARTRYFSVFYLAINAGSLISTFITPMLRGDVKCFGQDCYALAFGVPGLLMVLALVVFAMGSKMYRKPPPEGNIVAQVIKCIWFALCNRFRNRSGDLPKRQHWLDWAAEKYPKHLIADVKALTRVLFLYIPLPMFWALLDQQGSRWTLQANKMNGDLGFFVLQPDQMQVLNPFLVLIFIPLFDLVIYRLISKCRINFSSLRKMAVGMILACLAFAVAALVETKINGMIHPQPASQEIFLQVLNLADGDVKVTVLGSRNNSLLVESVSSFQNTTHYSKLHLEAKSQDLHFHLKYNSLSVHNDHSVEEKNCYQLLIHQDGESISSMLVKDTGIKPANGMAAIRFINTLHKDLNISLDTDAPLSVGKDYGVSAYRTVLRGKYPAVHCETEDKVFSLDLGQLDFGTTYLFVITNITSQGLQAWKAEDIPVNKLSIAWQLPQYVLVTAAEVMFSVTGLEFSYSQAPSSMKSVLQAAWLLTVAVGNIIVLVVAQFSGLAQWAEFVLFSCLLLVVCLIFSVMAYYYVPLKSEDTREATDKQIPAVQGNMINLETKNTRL

[3] = biological target: T3, Solute carrier family 15 member 2 (Rattus norvegicus) (UniProt Q63424); assay: TP_TRANSPORTER: inhibition of Gly-Sar uptake (Gly-Sar: 20 uM, Val-OBzl: 10000 uM) in PEPT2-expressing LLC-PK1 cells
T3 sequence (whole entry): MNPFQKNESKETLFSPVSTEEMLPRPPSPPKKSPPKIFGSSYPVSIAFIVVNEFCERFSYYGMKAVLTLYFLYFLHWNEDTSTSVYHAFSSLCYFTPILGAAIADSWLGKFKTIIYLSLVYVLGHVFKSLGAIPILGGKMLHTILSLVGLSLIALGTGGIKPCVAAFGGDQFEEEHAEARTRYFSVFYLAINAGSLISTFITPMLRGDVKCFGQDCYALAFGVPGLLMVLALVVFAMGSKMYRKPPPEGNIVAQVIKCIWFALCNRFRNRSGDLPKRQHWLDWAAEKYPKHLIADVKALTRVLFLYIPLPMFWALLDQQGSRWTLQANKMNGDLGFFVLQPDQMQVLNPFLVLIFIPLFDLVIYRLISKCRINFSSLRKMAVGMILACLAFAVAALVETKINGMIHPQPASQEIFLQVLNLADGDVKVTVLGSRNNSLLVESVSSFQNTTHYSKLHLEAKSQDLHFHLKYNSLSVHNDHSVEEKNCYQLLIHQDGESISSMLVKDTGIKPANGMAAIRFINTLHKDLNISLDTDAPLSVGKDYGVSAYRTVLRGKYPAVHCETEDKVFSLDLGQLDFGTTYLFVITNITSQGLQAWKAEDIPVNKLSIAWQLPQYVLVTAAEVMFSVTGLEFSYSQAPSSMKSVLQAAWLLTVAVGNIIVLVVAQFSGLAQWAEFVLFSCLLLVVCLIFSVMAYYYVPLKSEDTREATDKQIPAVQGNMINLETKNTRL

[4] = biological target: T4, Solute carrier family 15 member 1 (Rattus norvegicus) (UniProt P51574); assay: TP_TRANSPORTER: inhibition of Gly-Sar uptake (Gly-Sar: 20 uM, Val-OBzl: 10000 uM) in PEPT1-expressing LLC-PK1 cells
T4 sequence (whole entry): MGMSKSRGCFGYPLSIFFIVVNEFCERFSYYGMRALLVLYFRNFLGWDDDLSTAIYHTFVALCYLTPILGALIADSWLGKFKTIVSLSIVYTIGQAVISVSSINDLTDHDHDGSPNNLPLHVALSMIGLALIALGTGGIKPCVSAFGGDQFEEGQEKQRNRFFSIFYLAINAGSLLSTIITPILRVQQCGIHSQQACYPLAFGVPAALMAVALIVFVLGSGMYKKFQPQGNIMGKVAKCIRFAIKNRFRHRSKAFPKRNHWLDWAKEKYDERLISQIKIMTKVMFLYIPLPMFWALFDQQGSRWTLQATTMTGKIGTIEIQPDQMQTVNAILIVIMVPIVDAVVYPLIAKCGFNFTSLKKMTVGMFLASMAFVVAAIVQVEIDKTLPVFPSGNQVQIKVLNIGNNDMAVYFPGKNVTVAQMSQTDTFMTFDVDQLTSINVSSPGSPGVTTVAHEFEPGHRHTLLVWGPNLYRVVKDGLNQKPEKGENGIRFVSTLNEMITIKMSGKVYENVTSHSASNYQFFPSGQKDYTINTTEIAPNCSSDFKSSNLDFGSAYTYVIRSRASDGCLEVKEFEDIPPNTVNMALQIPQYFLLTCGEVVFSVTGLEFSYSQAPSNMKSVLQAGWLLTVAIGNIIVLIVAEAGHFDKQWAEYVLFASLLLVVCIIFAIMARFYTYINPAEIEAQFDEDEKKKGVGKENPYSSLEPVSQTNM

[5] = biological target: T4, Solute carrier family 15 member 1 (Rattus norvegicus); assay: TP_TRANSPORTER: inhibition of Gly-Sar uptake (Gly-Sar: 20 uM, Ile-OMe: 10000 uM) in PEPT1-expressing LLC-PK1 cells
[6] = biological target: T3, Solute carrier family 15 member 2 (Rattus norvegicus); assay: TP_TRANSPORTER: inhibition of Gly-Sar uptake (Gly-Sar: 20 uM, Ile-OMe: 10000 uM) in PEPT2-expressing LLC-PK1 cells
[7] = biological target: T4, Solute carrier family 15 member 1 (Rattus norvegicus); assay: TP_TRANSPORTER: inhibition of Gly-Sar uptake (Gly-Sar: 20 uM, Ser-OMe: 10000 uM) in PEPT1-expressing LLC-PK1 cells
[8] = biological target: T3, Solute carrier family 15 member 2 (Rattus norvegicus); assay: TP_TRANSPORTER: inhibition of Gly-Sar uptake (Gly-Sar: 20 uM, Tyr-OMe: 10000 uM) in PEPT2-expressing LLC-PK1 cells
[9] = substrate: CN(CC(=O)O)C(=O)CN; assay: TP_TRANSPORTER: uptake in PEPT2-expressing LLC-PK1 cells
[10] = substrate: CN(CC(=O)O)C(=O)CN; assay: TP_TRANSPORTER: uptake in PEPT1-expressing LLC-PK1 cells

CC(C)[C@H](N)C(=O)OCCOCn1cnc2c(=O)[nH]c(N)nc21 [VALACYCLOVIR]
Ki [1]: 2500 µM and 2700 µM | Ki [2]: 220 µM | Ki ([2]; llc-pk1): 220 µM

CC(C)[C@H](N)C(=O)OCc1ccccc1
Activity [3]: inhibitor [+] | Activity [4]: inhibitor [+]

CC[C@H](C)[C@H](N)C(=O)OC
Activity [5]: inhibitor [+] | Activity [6]: inhibitor [+]

COC(=O)[C@@H](N)CO
Activity [7]: inhibitor [+]

COC(=O)[C@@H](N)Cc1ccc(O)cc1
Activity [8]: inhibitor [+]

B1: Solute carrier family 15 member 2 (Rattus norvegicus), Q63424 (protein)
chain: MNPFQKNESKETLFSPVSTEEMLPRPPSPPKKSPPKIFGSSYPVSIAFIVVNEFCERFSYYGMKAVLTLYFLYFLHWNEDTSTSVYHAFSSLCYFTPILGAAIADSWLGKFKTIIYLSLVYVLGHVFKSLGAIPILGGKMLHTILSLVGLSLIALGTGGIKPCVAAFGGDQFEEEHAEARTRYFSVFYLAINAGSLISTFITPMLRGDVKCFGQDCYALAFGVPGLLMVLALVVFAMGSKMYRKPPPEGNIVAQVIKCIWFALCNRFRNRSGDLPKRQHWLDWAAEKYPKHLIADVKALTRVLFLYIPLPMFWALLDQQGSRWTLQANKMNGDLGFFVLQPDQMQVLNPFLVLIFIPLFDLVIYRLISKCRINFSSLRKMAVGMILACLAFAVAALVETKINGMIHPQPASQEIFLQVLNLADGDVKVTVLGSRNNSLLVESVSSFQNTTHYSKLHLEAKSQDLHFHLKYNSLSVHNDHSVEEKNCYQLLIHQDGESISSMLVKDTGIKPANGMAAIRFINTLHKDLNISLDTDAPLSVGKDYGVSAYRTVLRGKYPAVHCETEDKVFSLDLGQLDFGTTYLFVITNITSQGLQAWKAEDIPVNKLSIAWQLPQYVLVTAAEVMFSVTGLEFSYSQAPSSMKSVLQAAWLLTVAVGNIIVLVVAQFSGLAQWAEFVLFSCLLLVVCLIFSVMAYYYVPLKSEDTREATDKQIPAVQGNMINLETKNTRL
Km [9]: 90 µM

B2: Solute carrier family 15 member 1 (Rattus norvegicus), P51574 (protein)
chain: MGMSKSRGCFGYPLSIFFIVVNEFCERFSYYGMRALLVLYFRNFLGWDDDLSTAIYHTFVALCYLTPILGALIADSWLGKFKTIVSLSIVYTIGQAVISVSSINDLTDHDHDGSPNNLPLHVALSMIGLALIALGTGGIKPCVSAFGGDQFEEGQEKQRNRFFSIFYLAINAGSLLSTIITPILRVQQCGIHSQQACYPLAFGVPAALMAVALIVFVLGSGMYKKFQPQGNIMGKVAKCIRFAIKNRFRHRSKAFPKRNHWLDWAKEKYDERLISQIKIMTKVMFLYIPLPMFWALFDQQGSRWTLQATTMTGKIGTIEIQPDQMQTVNAILIVIMVPIVDAVVYPLIAKCGFNFTSLKKMTVGMFLASMAFVVAAIVQVEIDKTLPVFPSGNQVQIKVLNIGNNDMAVYFPGKNVTVAQMSQTDTFMTFDVDQLTSINVSSPGSPGVTTVAHEFEPGHRHTLLVWGPNLYRVVKDGLNQKPEKGENGIRFVSTLNEMITIKMSGKVYENVTSHSASNYQFFPSGQKDYTINTTEIAPNCSSDFKSSNLDFGSAYTYVIRSRASDGCLEVKEFEDIPPNTVNMALQIPQYFLLTCGEVVFSVTGLEFSYSQAPSNMKSVLQAGWLLTVAIGNIIVLIVAEAGHFDKQWAEYVLFASLLLVVCIIFAIMARFYTYINPAEIEAQFDEDEKKKGVGKENPYSSLEPVSQTNM
Km [10]: 1900 µM
